Values of other authors, collected in patent publication US20230149402A1, “SOLID PHARMACEUTICAL PREPARATION, PREPARATION METHOD THEREFOR AND USE THEREOF” (SHANGHAI HAIYAN PHARMACEUTICAL TECHNOLOGY CO., LTD, priority 2020, published 2023).

Columns and labels:
[1] = biological target: T1, hOX1R (Homo sapiens, UniProt O43613); conditions: FLIPR, read-out: IC50, inhibitory effect on OX1 GPCR receptor
T1 sequence (O43613 1-425): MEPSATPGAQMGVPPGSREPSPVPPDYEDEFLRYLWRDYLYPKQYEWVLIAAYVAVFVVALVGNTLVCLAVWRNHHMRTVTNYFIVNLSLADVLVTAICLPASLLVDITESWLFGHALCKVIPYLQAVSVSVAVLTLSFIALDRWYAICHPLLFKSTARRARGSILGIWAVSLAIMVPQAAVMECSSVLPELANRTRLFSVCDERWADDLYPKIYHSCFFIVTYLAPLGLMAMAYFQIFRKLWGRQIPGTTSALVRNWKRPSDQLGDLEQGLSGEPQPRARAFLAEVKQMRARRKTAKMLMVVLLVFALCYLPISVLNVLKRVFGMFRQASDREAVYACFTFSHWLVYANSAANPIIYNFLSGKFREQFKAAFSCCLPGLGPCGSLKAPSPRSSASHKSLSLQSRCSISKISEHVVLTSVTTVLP

[2] = biological target: T2, hOX2R (Homo sapiens, UniProt O43614); conditions: FLIPR, read-out: IC50, inhibitory effect on OX2 GPCR receptor
T2 sequence (O43614 1-444): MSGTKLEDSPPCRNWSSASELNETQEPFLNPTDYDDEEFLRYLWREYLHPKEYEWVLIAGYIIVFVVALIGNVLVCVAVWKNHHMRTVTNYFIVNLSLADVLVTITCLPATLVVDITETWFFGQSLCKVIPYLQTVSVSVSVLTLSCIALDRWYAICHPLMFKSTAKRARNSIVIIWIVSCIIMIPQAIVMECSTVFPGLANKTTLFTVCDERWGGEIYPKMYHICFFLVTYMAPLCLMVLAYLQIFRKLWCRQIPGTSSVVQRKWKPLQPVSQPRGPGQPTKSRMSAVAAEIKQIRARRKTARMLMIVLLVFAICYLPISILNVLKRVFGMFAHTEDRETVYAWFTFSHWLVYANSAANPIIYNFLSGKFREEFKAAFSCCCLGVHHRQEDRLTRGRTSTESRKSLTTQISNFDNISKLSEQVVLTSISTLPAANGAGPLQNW

In the case of `Cc1ccc(-c2ncccn2)c(C(=O)N2[C@H]3CC[C@@H](COc4ccc(F)cn4)[C@@H]2CC3)c1` [compound of formula (II), ((1S,2R,5S)-2-(((5-fluoropyridin-2-yl)oxy)methyl)-8-azabicyclo[3.2.1]octan-8-yl)(5-methyl-2-(pyrimidin-2-yl)phenyl)methanone], the IC50 [1] is listed as 0.02 µM and the IC50 [2] is listed as 0.036 µM.
